± gives the expanded uncertainty stated by the source.
Experiment: xn = mol fraction of the nth substance listed
Settings: 101 kPa, Liquid

**Q.** For `CCCCCl` [1-chlorobutane] + COC(C)(C)C, which viscosity (283.15 K, x1 = 0.0499) is on record?
**A.** Its viscosity is 0.395 ± 0.0078 mPa·s.

**Q.** And the viscosity (283.15 K, x1 = 0.1002)?
**A.** The viscosity was 0.4003 ± 0.0079 mPa·s.

**Q.** And the viscosity (283.15 K, x1 = 0.2011)?
**A.** The viscosity was 0.411 ± 0.0081 mPa·s.

**Q.** And the viscosity (283.15 K, x1 = 0.302)?
**A.** Its viscosity is 0.4224 ± 0.0082 mPa·s.

**Q.** And the viscosity (283.15 K, x1 = 0.4007)?
**A.** The viscosity was 0.4339 ± 0.0084 mPa·s.

**Q.** And the viscosity (283.15 K, x1 = 0.5026)?
**A.** The viscosity was 0.4461 ± 0.0086 mPa·s.

**Q.** And the viscosity (283.15 K, x1 = 0.6029)?
**A.** Its viscosity is 0.4581 ± 0.0088 mPa·s.

**Q.** What about the viscosity (283.15 K, x1 = 0.693) of the same compound?
**A.** The viscosity was 0.4686 ± 0.0089 mPa·s.

**Q.** And the viscosity (283.15 K, x1 = 0.8064)?
**A.** The viscosity was 0.481 ± 0.0091 mPa·s.

**Q.** And the viscosity (283.15 K, x1 = 0.904)?
**A.** The viscosity was 0.4912 ± 0.0093 mPa·s.

**Q.** What about the viscosity (283.15 K, x1 = 0.9509) of the same compound?
**A.** The viscosity was 0.4951 ± 0.0093 mPa·s.

**Q.** What about the viscosity (283.15 K, x1 = 1) of the same compound?
**A.** Its viscosity is 0.4993 ± 0.0094 mPa·s.

**Q.** What about the viscosity (288.15 K, x1 = 0.0499) of the same compound?
**A.** Its viscosity is 0.369 ± 0.0074 mPa·s.

**Q.** What about the viscosity (288.15 K, x1 = 0.1002) of the same compound?
**A.** The viscosity was 0.3741 ± 0.0075 mPa·s.

**Q.** And the viscosity (288.15 K, x1 = 0.2011)?
**A.** Its viscosity is 0.3844 ± 0.0077 mPa·s.

**Q.** And the viscosity (288.15 K, x1 = 0.302)?
**A.** Its viscosity is 0.3952 ± 0.0078 mPa·s.

**Q.** What about the viscosity (288.15 K, x1 = 0.4007) of the same compound?
**A.** The viscosity was 0.4063 ± 0.008 mPa·s.

**Q.** And the viscosity (288.15 K, x1 = 0.5026)?
**A.** Its viscosity is 0.418 ± 0.0082 mPa·s.

**Q.** What about the viscosity (288.15 K, x1 = 0.6029) of the same compound?
**A.** The viscosity was 0.4295 ± 0.0083 mPa·s.

**Q.** What about the viscosity (288.15 K, x1 = 0.693) of the same compound?
**A.** Its viscosity is 0.4396 ± 0.0085 mPa·s.

**Q.** What about the viscosity (288.15 K, x1 = 0.8064) of the same compound?
**A.** Its viscosity is 0.4518 ± 0.0087 mPa·s.

**Q.** What about the viscosity (288.15 K, x1 = 0.904) of the same compound?
**A.** The viscosity was 0.4616 ± 0.0088 mPa·s.

**Q.** And the viscosity (288.15 K, x1 = 0.9509)?
**A.** The viscosity was 0.4658 ± 0.0089 mPa·s.

**Q.** And the viscosity (288.15 K, x1 = 1)?
**A.** The viscosity was 0.4701 ± 0.009 mPa·s.

**Q.** What about the viscosity (293.15 K, x1 = 0.0499) of the same compound?
**A.** Its viscosity is 0.3525 ± 0.0072 mPa·s.

**Q.** And the viscosity (293.15 K, x1 = 0.1002)?
**A.** The viscosity was 0.3571 ± 0.0072 mPa·s.

**Q.** And the viscosity (293.15 K, x1 = 0.2011)?
**A.** The viscosity was 0.3663 ± 0.0074 mPa·s.

**Q.** And the viscosity (293.15 K, x1 = 0.302)?
**A.** The viscosity was 0.3758 ± 0.0075 mPa·s.

**Q.** What about the viscosity (293.15 K, x1 = 0.4007) of the same compound?
**A.** Its viscosity is 0.3855 ± 0.0077 mPa·s.

**Q.** And the viscosity (293.15 K, x1 = 0.5026)?
**A.** Its viscosity is 0.3959 ± 0.0078 mPa·s.

**Q.** And the viscosity (293.15 K, x1 = 0.6029)?
**A.** The viscosity was 0.4063 ± 0.008 mPa·s.

**Q.** What about the viscosity (293.15 K, x1 = 0.693) of the same compound?
**A.** The viscosity was 0.4155 ± 0.0081 mPa·s.

**Q.** What about the viscosity (293.15 K, x1 = 0.8064) of the same compound?
**A.** The viscosity was 0.4266 ± 0.0083 mPa·s.

**Q.** And the viscosity (293.15 K, x1 = 0.904)?
**A.** The viscosity was 0.4355 ± 0.0084 mPa·s.

**Q.** What about the viscosity (293.15 K, x1 = 0.9509) of the same compound?
**A.** The viscosity was 0.4392 ± 0.0085 mPa·s.

**Q.** What about the viscosity (293.15 K, x1 = 1) of the same compound?
**A.** Its viscosity is 0.4433 ± 0.0085 mPa·s.

**Q.** What about the viscosity (298.15 K, x1 = 0.0499) of the same compound?
**A.** Its viscosity is 0.3367 ± 0.0069 mPa·s.

**Q.** And the viscosity (298.15 K, x1 = 0.1002)?
**A.** Its viscosity is 0.3409 ± 0.007 mPa·s.

**Q.** And the viscosity (298.15 K, x1 = 0.2011)?
**A.** The viscosity was 0.3494 ± 0.0071 mPa·s.

**Q.** What about the viscosity (298.15 K, x1 = 0.302) of the same compound?
**A.** The viscosity was 0.3582 ± 0.0073 mPa·s.

**Q.** What about the viscosity (298.15 K, x1 = 0.4007) of the same compound?
**A.** Its viscosity is 0.367 ± 0.0074 mPa·s.

**Q.** What about the viscosity (298.15 K, x1 = 0.5026) of the same compound?
**A.** The viscosity was 0.3765 ± 0.0075 mPa·s.

**Q.** What about the viscosity (298.15 K, x1 = 0.6029) of the same compound?
**A.** The viscosity was 0.386 ± 0.0077 mPa·s.

**Q.** What about the viscosity (298.15 K, x1 = 0.693) of the same compound?
**A.** Its viscosity is 0.3945 ± 0.0078 mPa·s.

**Q.** What about the viscosity (298.15 K, x1 = 0.8064) of the same compound?
**A.** The viscosity was 0.4048 ± 0.008 mPa·s.

**Q.** What about the viscosity (298.15 K, x1 = 0.904) of the same compound?
**A.** Its viscosity is 0.4134 ± 0.0081 mPa·s.

**Q.** What about the viscosity (298.15 K, x1 = 0.9509) of the same compound?
**A.** Its viscosity is 0.4173 ± 0.0081 mPa·s.

**Q.** What about the viscosity (298.15 K, x1 = 1) of the same compound?
**A.** The viscosity was 0.4214 ± 0.0082 mPa·s.

**Q.** What about the viscosity (303.15 K, x1 = 0.0499) of the same compound?
**A.** The viscosity was 0.3193 ± 0.0067 mPa·s.

**Q.** And the viscosity (303.15 K, x1 = 0.1002)?
**A.** The viscosity was 0.3234 ± 0.0068 mPa·s.

**Q.** What about the viscosity (303.15 K, x1 = 0.2011) of the same compound?
**A.** The viscosity was 0.332 ± 0.0069 mPa·s.

**Q.** And the viscosity (303.15 K, x1 = 0.302)?
**A.** The viscosity was 0.3408 ± 0.007 mPa·s.

**Q.** What about the viscosity (303.15 K, x1 = 0.4007) of the same compound?
**A.** Its viscosity is 0.3498 ± 0.0071 mPa·s.

**Q.** What about the viscosity (303.15 K, x1 = 0.5026) of the same compound?
**A.** The viscosity was 0.3592 ± 0.0073 mPa·s.

**Q.** And the viscosity (303.15 K, x1 = 0.6029)?
**A.** The viscosity was 0.3686 ± 0.0074 mPa·s.

**Q.** What about the viscosity (303.15 K, x1 = 0.693) of the same compound?
**A.** The viscosity was 0.377 ± 0.0075 mPa·s.

**Q.** And the viscosity (303.15 K, x1 = 0.8064)?
**A.** Its viscosity is 0.3876 ± 0.0077 mPa·s.

**Q.** And the viscosity (303.15 K, x1 = 0.904)?
**A.** The viscosity was 0.3966 ± 0.0078 mPa·s.

**Q.** What about the viscosity (303.15 K, x1 = 0.9509) of the same compound?
**A.** The viscosity was 0.4007 ± 0.0079 mPa·s.

**Q.** What about the viscosity (303.15 K, x1 = 1) of the same compound?
**A.** The viscosity was 0.405 ± 0.0079 mPa·s.

**Q.** And the viscosity (308.15 K, x1 = 0.0499)?
**A.** The viscosity was 0.3033 ± 0.0065 mPa·s.

**Q.** What about the viscosity (308.15 K, x1 = 0.1002) of the same compound?
**A.** Its viscosity is 0.3074 ± 0.0065 mPa·s.

**Q.** And the viscosity (308.15 K, x1 = 0.2011)?
**A.** The viscosity was 0.3159 ± 0.0066 mPa·s.

**Q.** What about the viscosity (308.15 K, x1 = 0.302) of the same compound?
**A.** The viscosity was 0.3247 ± 0.0068 mPa·s.

**Q.** What about the viscosity (308.15 K, x1 = 0.4007) of the same compound?
**A.** Its viscosity is 0.3335 ± 0.0069 mPa·s.

**Q.** What about the viscosity (308.15 K, x1 = 0.5026) of the same compound?
**A.** Its viscosity is 0.3428 ± 0.007 mPa·s.

**Q.** And the viscosity (308.15 K, x1 = 0.6029)?
**A.** Its viscosity is 0.3519 ± 0.0072 mPa·s.

**Q.** What about the viscosity (308.15 K, x1 = 0.693) of the same compound?
**A.** Its viscosity is 0.3605 ± 0.0073 mPa·s.

**Q.** And the viscosity (308.15 K, x1 = 0.8064)?
**A.** The viscosity was 0.371 ± 0.0075 mPa·s.

**Q.** And the viscosity (308.15 K, x1 = 0.904)?
**A.** Its viscosity is 0.3799 ± 0.0076 mPa·s.

**Q.** And the viscosity (308.15 K, x1 = 0.9509)?
**A.** Its viscosity is 0.3841 ± 0.0077 mPa·s.

**Q.** And the viscosity (308.15 K, x1 = 1)?
**A.** The viscosity was 0.3885 ± 0.0077 mPa·s.

**Q.** And the viscosity (313.15 K, x1 = 0.0499)?
**A.** Its viscosity is 0.288 ± 0.0062 mPa·s.

**Q.** And the viscosity (313.15 K, x1 = 0.1002)?
**A.** The viscosity was 0.2915 ± 0.0063 mPa·s.

**Q.** And the viscosity (313.15 K, x1 = 0.2011)?
**A.** The viscosity was 0.2991 ± 0.0064 mPa·s.

**Q.** And the viscosity (313.15 K, x1 = 0.302)?
**A.** Its viscosity is 0.3068 ± 0.0065 mPa·s.

**Q.** And the viscosity (313.15 K, x1 = 0.4007)?
**A.** Its viscosity is 0.3146 ± 0.0066 mPa·s.

**Q.** And the viscosity (313.15 K, x1 = 0.5026)?
**A.** Its viscosity is 0.3229 ± 0.0068 mPa·s.

**Q.** What about the viscosity (313.15 K, x1 = 0.6029) of the same compound?
**A.** Its viscosity is 0.3312 ± 0.0069 mPa·s.

**Q.** What about the viscosity (313.15 K, x1 = 0.693) of the same compound?
**A.** Its viscosity is 0.3389 ± 0.007 mPa·s.

**Q.** And the viscosity (313.15 K, x1 = 0.8064)?
**A.** Its viscosity is 0.3482 ± 0.0071 mPa·s.

**Q.** What about the viscosity (313.15 K, x1 = 0.904) of the same compound?
**A.** The viscosity was 0.3563 ± 0.0073 mPa·s.

**Q.** What about the viscosity (313.15 K, x1 = 0.9509) of the same compound?
**A.** Its viscosity is 0.3601 ± 0.0073 mPa·s.

**Q.** And the viscosity (313.15 K, x1 = 1)?
**A.** The viscosity was 0.3642 ± 0.0074 mPa·s.
